What follows are molecules tested against T1, human C5a receptor (Homo sapiens, UniProt P21730) (assay: C5a receptor mediated calcium mobilization assay (Example 20)). Details: differentiated U937 cells, read-out: Ca2+ (Ki in the standard assay of C5a receptor mediated calcium mobilization).
T1 construct: endogenous in cells; host or cells: U937 cells differentiated with 1 mM dibutyryl cAMP
T1 sequence (P21730 1-350): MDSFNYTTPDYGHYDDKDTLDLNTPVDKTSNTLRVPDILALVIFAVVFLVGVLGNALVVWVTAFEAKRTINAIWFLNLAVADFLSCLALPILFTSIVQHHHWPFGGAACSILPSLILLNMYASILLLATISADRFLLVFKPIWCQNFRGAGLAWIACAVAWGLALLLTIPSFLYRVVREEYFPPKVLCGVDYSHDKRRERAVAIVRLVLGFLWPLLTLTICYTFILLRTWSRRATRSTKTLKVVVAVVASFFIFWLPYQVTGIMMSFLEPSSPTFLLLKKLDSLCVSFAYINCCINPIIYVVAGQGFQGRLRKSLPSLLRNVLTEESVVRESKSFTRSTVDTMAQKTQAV
Format: cell-based
Procedure: Calcium Mobilization Assays
U937 cells are grown in differentiation media (1 mM dibutyryl cAMP in RPMI 1640 medium containing 10% fetal bovine serum) for 48 hrs at 37° C. then reseeded onto 96-well plates suitable for use in a FLIPR™ Plate Reader (Molecular Devices Corp., Sunnyvale Calif.). Cells are grown an additional 24 hours (to 70-90% confluence) before the assay. The cells are then washed once with Krebs Ringer solution. FLUO-3 calcium sensitive dye (Molecular Probes, Inc. Eugene, Oreg.) is added to 10 μg/mL and incubated with the cells at room temperature for 1 to 2 hours. The 96 well plates are then washed to remove excess dye. Fluorescence responses, measured by excitation at 480 nm and emission at 530 nm, are monitored upon the addition of human C5a to the cells to a final concentration of 0.01-30.0 nM, using the FLIPR™ device (Molecular Devices).
C. Assays for the Identification of Receptor Modulatory Agents: Antagonists and Agonists
The calcium mobilization assay described above may be readily adapted for identifying test compounds that have agonist or antagonist activity at the human C5a receptor.
For example, in order to identify antagonist compounds, differentiated U937 cells are washed and incubated with Fluo-3 dye as described above. One hour prior to measuring the fluorescence signal, a subset of the cells is incubated with 1 μM of at least one compound to be tested. The fluorescence response upon the subsequent addition of 0.3 nM (final concentration) human recombinant C5a is monitored using the FLIPR™ plate reader. Antagonist compounds elicit at least a 2-fold decrease in the fluorescence response relative to that measured in the presence of human C5a alone. Preferred antagonist compounds elicit at least a 5-fold, preferably at least a 10-fold, and more preferably at least a 20-fold decrease in the fluorescence response relative to that measured in the presence of human C5a alone.

Ki, < 1000 nM:
Cc1cccc([C@@H]2c3ccccc3CCN2[C@@H](C)C(=O)N(Cc2ccccc2F)C2Cc3ccccc3C2)c1C [Compound 68, (2S)-N-(indan-2-yl)-2-[(1S)-1-(2,3-dimethylphenyl)-3,4-dihydroisoquinolin-2(1H)-yl]-N-(2-fluorobenzyl)propanamide]
C[C@@H](C(=O)N(Cc1ccccc1F)C1Cc2ccccc2C1)N1CCc2ccccc2[C@@H]1c1ccccc1C(F)(F)F [Compound 69, (2S)-N-(indan-2-yl)-N-(2-fluorobenzyl)-2-[(1R)-1-[2-(trifluoromethyl)phenyl]-3,4-dihydroisoquinolin-2(1H)-yl]propanamide]
C[C@@H](C(=O)N(Cc1ccccc1F)C1Cc2ccccc2C1)N1CCc2ccccc2[C@@H]1c1ccccc1Br [Compound 70, (2S)-2-[(1R)-1-(2-bromophenyl)-3,4-dihydroisoquinolin-2(1H)-yl]-N-(indan-2-yl)-N-(2-fluorobenzyl)propanamide]
Cc1cccc(C)c1[C@H]1c2ccccc2CCN1[C@@H](C)C(=O)N(Cc1ccccc1F)C1Cc2ccccc2C1 [Compound 71, (2S)-N-(indan-2-yl)-2-[(1R)-1-(2,6-dimethylphenyl)-3,4-dihydroisoquinolin-2(1H)-yl]-N-(2-fluorobenzyl)propanamide]
O=C(CN1CCc2ccccc2C1c1cccc(F)c1F)N(Cc1ccccc1F)C1Cc2ccccc2C1 (centres unmarked) [Compound 74, 2-[1-(2,3-difluorophenyl)-3,4-dihydroisoquinolin-2(1H)-yl]-N-(indan-2-yl)-N-(2-fluorobenzyl)acetamide]
C[C@@H](C(=O)N(Cc1ccccc1F)C1Cc2ccccc2C1)N1CCc2ccccc2[C@@H]1c1cccc2c1OCC2 [Compound 75, (2S)-2-[(1R)-1-(2,3-dihydro-1-benzofuran-7-yl)-3,4-dihydroisoquinolin-2(1H)-yl]-N-(indan-2-yl)-N-(2-fluorobenzyl)propanamide]
COC(=O)c1ccc(C2c3ccccc3CCN2CC(=O)N(Cc2ccccc2F)C2Cc3ccccc3C2)cc1 (centres unmarked) [Compound 76, methyl 4-(2-{2-[indan-2-yl(2-fluorobenzyl)amino]-2-oxoethyl}-1,2,3,4-tetrahydroisoquinolin-1-yl)benzoate]
C[C@@H](C(=O)N(Cc1ccccc1)Cc1ccc(O)cc1Cl)N1CCc2ccccc2[C@@H]1c1ccccc1Br [Compound 77, (2S)-N-benzyl-2-[(1R)-1-(2-bromophenyl)-3,4-dihydroisoquinolin-2(1H)-yl]-N-(2-chloro-4-hydroxybenzyl)propanamide]
COc1cccc(CN(C(=O)CN2CCc3ccccc3C2c2ccccc2C)C2Cc3ccccc3C2)c1 (centres unmarked) [Compound 79, N-(indan-2-yl)-N-(3-methoxybenzyl)-2-[1-(2-methylphenyl)-3,4-dihydroisoquinolin-2(1H)-yl]acetamide]
Cc1cc(C)c(C2c3ccccc3CCN2CC(=O)N(Cc2ccccc2F)C2Cc3ccccc3C2)c(C)c1 (centres unmarked) [Compound 80, N-(indan-2-yl)-N-(2-fluorobenzyl)-2-(1-mesityl-3,4-dihydroisoquinolin-2(1H)-yl)acetamide]
O=C(CN1CCc2ccccc2C1c1c(F)cccc1F)N(Cc1ccccc1F)C1Cc2ccccc2C1 (centres unmarked) [Compound 81, 2-[1-(2,6-difluorophenyl)-3,4-dihydroisoquinolin-2(1H)-yl]-N-(indan-2-yl)-N-(2-fluorobenzyl)acetamide]
Cc1ccccc1C1c2ccccc2CCN1CC(=O)N(Cc1ccccc1F)c1ccccc1 (centres unmarked) [Compound 82, N-(2-fluorobenzyl)-2-[1-(2-methylphenyl)-3,4-dihydroisoquinolin-2(1H)-yl]-N-phenylacetamide]
Cc1ccc2ccccc2c1C1c2ccccc2CCN1CC(=O)N(Cc1ccccc1F)C1Cc2ccccc2C1 (centres unmarked) [Compound 83, N-(indan-2-yl)-N-(2-fluorobenzyl)-2-[1-(2-methyl-1-naphthyl)-3,4-dihydroisoquinolin-2(1H)-yl]acetamide]
Cc1ccc(Cl)c([C@H]2c3ccccc3CCN2[C@@H](C)C(=O)N(Cc2ccccc2F)C2Cc3ccccc3C2)c1 [Compound 84, (2S)-2-[(1R)-1-(2-chloro-5-methylphenyl)-3,4-dihydroisoquinolin-2(1H)-yl]-N-(indan-2-yl)-N-(2-fluorobenzyl)propanamide]
Cc1ccc(C)c([C@H]2c3ccccc3CCN2[C@@H](C)C(=O)N(Cc2ccccc2F)C2Cc3ccccc3C2)c1 [Compound 85, (2S)-N-(indan-2-yl)-2-[(1S)-1-(2,5-dimethylphenyl)-3,4-dihydroisoquinolin-2(1H)-yl]-N-(2-fluorobenzyl)propanamide]
Cc1ccc(F)c([C@H]2c3ccccc3CCN2[C@@H](C)C(=O)N(Cc2ccccc2F)C2Cc3ccccc3C2)c1 [Compound 86, (2S)-N-(indan-2-yl)-N-(2-fluorobenzyl)-2-[(1R)-1-(2-fluoro-5-methylphenyl)-3,4-dihydroisoquinolin-2(1H)-yl]propanamide]
C[C@@H](C(=O)N(Cc1ccccc1F)Cc1ccccc1F)N1CCc2ccccc2[C@@H]1c1ccccc1Cl [Compound 87, (2S)-2-[(1R)-1-(2-chlorophenyl)-3,4-dihydroisoquinolin-2(1H)-yl]-N,N-bis(2-fluorobenzyl)propanamide]
Cc1ccccc1C1c2ccccc2CCN1CC(=O)N(Cc1ccc(C(=O)O)cc1)C1Cc2ccccc2C1 (centres unmarked) [Compound 88, 4-[(indan-2-yl{[1-(2-methylphenyl)-3,4-dihydroisoquinolin-2(1H)-yl]acetyl}amino)methyl] benzoic acid]
C[C@@H](C(=O)N(Cc1ccccc1F)C1Cc2ccccc2C1)N1CCc2ccccc2[C@@H]1c1c(F)cccc1F [Compound 89, (2S)-2-[(1R)-1(2,6-difluorophenyl)-3,4-dihydroisoquinolin-2(1H)-yl]-N-(indan-2-yl)-N-(2-fluorobenzyl)propanamide]
C[C@@H](C(=O)N(Cc1ccccc1O)C1Cc2ccccc2C1)N1CCc2ccccc2[C@@H]1c1ccccc1Cl [Compound 90, (2S)-2-[(1R)-1-(2-chlorophenyl)-3,4-dihydroisoquinolin-2(1H)-yl]-N-(indan-2-yl)-N-(2-hydroxybenzyl)propanamide]
C[C@@H](C(=O)N(CCc1ccccc1)Cc1ccccc1F)N1CCc2ccccc2[C@@H]1c1ccccc1Cl [Compound 91, (2S)-2-[(1R)-1-(2-chlorophenyl)-3,4-dihydroisoquinolin-2(1H)-yl]-N-(2-fluorobenzyl)-N-(2-phenylethyl)propanamide]
COc1ccc2c(c1)CC(N(Cc1ccccc1F)C(=O)CN1CCc3ccccc3C1c1ccccc1Cl)C2 (centres unmarked) [Compound 93, 2-[1-(2-chlorophenyl)-3,4-dihydroisoquinolin-2(1H)-yl]-N-(2-fluorobenzyl)-N-(5-methoxy-indan-2-yl)acetamide]
COc1ccc2c(c1)CC(N(Cc1ccccc1F)C(=O)CN1CCc3ccccc3C1c1ccccc1C(F)(F)F)C2 (centres unmarked) [Compound 94, N-(2-fluorobenzyl)-N-(5-methoxy-indan-2-yl)-2-[1-[2-(trifluoromethyl)phenyl]-3,4-dihydroisoquinolin-2(1H)-yl]acetamide]
O=C(CN1CCc2ccccc2C1c1c(Cl)cccc1Cl)N(Cc1ccccc1F)C1Cc2ccccc2C1 (centres unmarked) [Compound 95, 2-[1-(2,6-dichlorophenyl)-3,4-dihydroisoquinolin-2(1H)-yl]-N-(indan-2-yl)-N-(2-fluorobenzyl)acetamide]
O=C(CN1CCc2ccccc2C1c1c(F)cccc1Cl)N(Cc1ccccc1F)C1Cc2ccccc2C1 (centres unmarked) [Compound 96, 2-[1-(2-chloro-6-fluorophenyl)-3,4-dihydroisoquinolin-2(1H)-yl]-N-(indan-2-yl)-N-(2-fluorobenzyl)acetamide]
C[C@@H](C(=O)N(Cc1c[nH]cn1)C1Cc2ccccc2C1)N1CCc2ccccc2[C@@H]1c1ccccc1Cl [Compound 97, (2S)-2-[(1R)-1-(2-chlorophenyl)-3,4-dihydroisoquinolin-2(1H)-yl]-N-(indan-2-yl)-N-(1H-imidazol-4-ylmethyl)propanamide]

Source: patent US6777422B2, “Substituted tetrahydroisoquinolines as C5a receptor modulators” (Neurogen Corp., priority 2002, dated 2004)
